This note sets out measurements from PubChem BioAssay AID488958 (The Scripps Research Institute Molecular Screening Center, 2010).

Molecules are shown by their SMILES. The source made the active and inactive calls. How the calls were made is not given here.

This experiment deals with 3C-like protease (Infectious bronchitis virus, as filed; assay for SARS-CoV 3CLpro). Put plainly: potency of SARS-CoV 3CLpro inhibitors, late-stage follow-up, biochemical, fluorescence, dose response (AID 488958). The conditions noted are these: recombinant 3CLpro, fluorogenic peptide cleavage.

By IC50 is commonly meant the concentration at which inhibition is half-maximal. Regarding `CC(C)(C)NC(=O)C(c1cccnc1)N(C(=O)c1ncco1)c1ccc(C(C)(C)C)cc1` (stereo unspecified), the IC50 result is “inactive”.

On to `CC(=O)Nc1ccc(N(C(=O)Cn2nnc3ccccc32)C(C(=O)NCc2ccccc2)c2cccc(F)c2)cc1` (stereo unspecified), for which the IC50 was 2.9 µM.

As for `CC(C)(C)NC(=O)C(c1cncnc1)N(C(=O)c1cnc[nH]1)c1ccc(C(C)(C)C)cc1` (stereo unspecified), the IC50 entry is “inactive”.

For the compound `CC(C)(C)NC(=O)C(c1cccnc1)N(C(=O)c1ccc(Cl)o1)c1ccc(C(C)(C)C)cc1` (stereo unspecified), the IC50 was 5.2 µM.

Turning to `CCC(C)c1ccc(N(C(=O)c2ccco2)[C@H](C(=O)NC(C)(C)C)c2cccnc2)cc1` (stereo partly specified), the IC50 is 2.3 µM.

As for `CC(=O)Nc1ccc(N(C(=O)Cn2nnc3ccccc32)C(C(=O)NC(C)(C)C)c2cccc(F)c2)cc1` (stereo unspecified), the IC50 is 6.3 µM.
